Laboratory results: PubChem BioAssay AID248 (DTP/NCI, 2004)
Several values for one entry are separate records, joined by “and”; a condition that tells them apart may be missing. Equal values may be shown once. Toxic doses and inconclusive results are not listed. Rule as the data show it: active = T/C of 150% or more; inactive = T/C below 125%. Square brackets hold non-standard residues; d marks the D form. Peptide text beside a SMILES is read from it. ξ: configuration not given here. ξE = NC(CCC(=O)O)C(=O)O

Tested on: L1210 leukemia ip in BDF1 mice, survival T/C
Test: NCI In Vivo Anticancer Drug Screen. Data for tumor model L1210 Leukemia (intraperitoneal) in B6D2F1 (BDF1) mice
Conditions: endpoint: mean survival time, higher = longer survival
How it was run: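 Read-out is survival time, reported as the treated-group measurement over the vehicle-control measurement.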

[1] = dose: 100.0 mg/kg/injection, schedule: Q04DX002 (ip), vehicle: saline
[2] = dose: 200.0 mg/kg/injection, schedule: Q04DX002 (ip), vehicle: saline
[3] = dose: 100.0 mg/kg/injection, schedule: Q04DX003 (ip), vehicle: Klucel (hydroxypropylcellulose) (HPC)
[4] = dose: 200.0 mg/kg/injection, schedule: Q04DX003 (ip), vehicle: Klucel (hydroxypropylcellulose) (HPC)
[5] = dose: 400.0 mg/kg/injection, schedule: Q04DX003 (ip), vehicle: Klucel (hydroxypropylcellulose) (HPC)
[6] = dose: 100.0 mg/kg/injection, schedule: Q01DX001 (ip), vehicle: other
[7] = dose: 200.0 mg/kg/injection, schedule: Q01DX001 (ip), vehicle: other
[8] = dose: 100.0 mg/kg/injection, schedule: Q01DX009 (ip), vehicle: saline
[9] = dose: 100.0 mg/kg/injection, schedule: Q04DX003 (ip), vehicle: saline with Tween-80
[10] = dose: 200.0 mg/kg/injection, schedule: Q04DX003 (ip), vehicle: saline with Tween-80
[11] = dose: 400.0 mg/kg/injection, schedule: Q04DX003 (ip), vehicle: saline with Tween-80
[12] = dose: 100.0 mg/kg/injection, schedule: Q01DX009 (ip), vehicle: saline with Tween-80
[13] = dose: 200.0 mg/kg/injection, schedule: Q01DX009 (ip), vehicle: saline with Tween-80
[14] = dose: 100.0 mg/kg/injection, schedule: Q01DX001 (ip), vehicle: saline
[15] = dose: 200.0 mg/kg/injection, schedule: Q01DX001 (ip), vehicle: saline
[16] = dose: 400.0 mg/kg/injection, schedule: Q01DX001 (ip), vehicle: saline
[17] = dose: 12.5 mg/kg/injection, schedule: Q01DX009 (ip), vehicle: saline with Tween-80
[18] = dose: 25.0 mg/kg/injection, schedule: Q01DX009 (ip), vehicle: saline with Tween-80
[19] = dose: 100.0 mg/kg/injection, schedule: Q01DX001 (ip), vehicle: carboxymethylcellulose (CMC)
[20] = dose: 200.0 mg/kg/injection, schedule: Q01DX001 (ip), vehicle: carboxymethylcellulose (CMC)
[21] = dose: 400.0 mg/kg/injection, schedule: Q01DX001 (ip), vehicle: carboxymethylcellulose (CMC)

Measured: T/C

C=CCOC(=O)C(F)(F)F
inactive: [1] 89 % of control | [2] 86 % of control

O=C1C(NC2CCCCC2)=C(c2ccccc2)c2ccccc21
inactive: dose: 50.0 mg/kg/injection, schedule: Q01DX001 (ip), vehicle: Klucel (hydroxypropylcellulose) (HPC) 94 % of control | dose: 100.0 mg/kg/injection, schedule: Q01DX001 (ip), vehicle: Klucel (hydroxypropylcellulose) (HPC) 92 % of control | dose: 200.0 mg/kg/injection, schedule: Q01DX001 (ip), vehicle: Klucel (hydroxypropylcellulose) (HPC) 94 % of control

O=C(OC(c1ccccc1)c1ccccc1)C(CSC(c1ccccc1)(c1ccccc1)c1ccccc1)NC(c1ccccc1)(c1ccccc1)c1ccccc1 (stereo not drawn)
inactive: [3] 91 % of control | [4] 92 % of control

OC12CCCC3CCCC(CCC1)C32 (stereo not drawn)
inactive: dose: 100.0 mg/kg/injection, schedule: Q01DX009 (ip), vehicle: saline sonified 108 % of control | [3] 106 % of control | dose: 200.0 mg/kg/injection, schedule: Q01DX009 (ip), vehicle: saline sonified 111 % of control | [4] 96 % of control | dose: 400.0 mg/kg/injection, schedule: Q01DX009 (ip), vehicle: saline sonified 92 % of control | [5] 104 % of control

Nc1[nH]c(=S)nc2c1ncn2C1CCCC1
inactive: [6] 93 % of control | [7] 93 % of control

O=c1ccc2cc3oc(=O)ccc3cc2o1
inactive: dose: 100.0 mg/kg/injection, schedule: Q01DX001 (ip), vehicle: saline with Tween-80 90 % of control | dose: 200.0 mg/kg/injection, schedule: Q01DX001 (ip), vehicle: saline with Tween-80 97 % of control | dose: 400.0 mg/kg/injection, schedule: Q01DX001 (ip), vehicle: saline with Tween-80 90 % of control

CCCCCCOC(=O)/C=C(/C)OCCCCCC
inactive: [8] 97 % of control | dose: 100.0 mg/kg/injection, schedule: Q04DX003 (ip), vehicle: saline 94 % of control | dose: 200.0 mg/kg/injection, schedule: Q01DX009 (ip), vehicle: saline 95 % of control | dose: 200.0 mg/kg/injection, schedule: Q04DX003 (ip), vehicle: saline 96 % of control | dose: 400.0 mg/kg/injection, schedule: Q01DX009 (ip), vehicle: saline 92 % of control

O=c1[nH]cc(Sc2ccccc2)c(=O)[nH]1
inactive: [9] 101 % of control | [10] 93 % of control | [11] 96 % of control

OC(CBr)c1ccc(Cl)cc1 (stereo not drawn)
inactive: [12] 96 % of control | [9] 98 % of control | [13] 96 % of control | [10] 104 % of control | [11] 89 % of control

Nc1ccccc1C(=O)ONC(=O)c1ccccc1
inactive: dose: 100.0 mg/kg/injection, schedule: Q04DX003 (ip), vehicle: carboxymethylcellulose (CMC) 97 % of control | dose: 200.0 mg/kg/injection, schedule: Q04DX003 (ip), vehicle: carboxymethylcellulose (CMC) 93 % of control | dose: 400.0 mg/kg/injection, schedule: Q04DX003 (ip), vehicle: carboxymethylcellulose (CMC) 92 % of control

CCOc1ccccc1/C=N/Nc1c2ccccc2nc2ccccc12
inactive: [14] 90 % of control | [15] 97 % of control | [16] 92 % of control

O=S(=O)(O)c1ccc(-c2c3nc(c(-c4ccc(S(=O)(=O)O)cc4)c4ccc([nH]4)c(-c4ccc(S(=O)(=O)O)cc4)c4nc(c(-c5ccc(S(=O)(=O)O)cc5)c5ccc2[nH]5)C=C4)C=C3)cc1
inactive: [17] 90 % of control | [18] 90 % of control | dose: 50.0 mg/kg/injection, schedule: Q01DX009 (ip), vehicle: saline with Tween-80 98 % of control | [12] 88 % of control

O=S(=O)(O)c1ccc(/C2=c3\cc/c([n-]3)=C(\c3ccc(S(=O)(=O)O)cc3)c3ccc([n-]3)/C(c3ccc(S(=O)(=O)O)cc3)=c3/cc/c([n-]3)=C(\c3ccc(S(=O)(=O)O)cc3)c3ccc2[n-]3)cc1.[Co]
inactive: dose: 50.0 mg/kg/injection, schedule: Q01DX009 (ip), vehicle: saline 97 % of control | [8] 113 % of control

O=C(Nc1ccc(C2=NC3CCCCC3N2)cc1)c1ccc(C(=O)Nc2ccc(C3=NC4CCCCC4N3)cc2)cc1 (stereo not drawn)
inactive: dose: 15.0 mg/kg/injection, schedule: Q01DX Z (ip), vehicle: carboxymethylcellulose (CMC) 96 % of control | dose: 30.0 mg/kg/injection, schedule: Q01DX Z (ip), vehicle: carboxymethylcellulose (CMC) 92 % of control | dose: 60.0 mg/kg/injection, schedule: Q01DX Z (ip), vehicle: carboxymethylcellulose (CMC) 96 % of control | dose: 120.0 mg/kg/injection, schedule: Q01DX Z (ip), vehicle: carboxymethylcellulose (CMC) 103 % of control

Cc1ccc(-c2nnc3c4ccccc4ccn23)cc1
inactive: [19] 93 % of control | [20] 93 % of control | [21] 91 % of control

O=C1NC(=O)/C(=C/c2ccco2)N1
inactive: [3] 103 % of control | [4] 90 % of control

O=C(OCc1ccc([N+](=O)[O-])o1)c1ccc(Cl)cc1
inactive: [14] 97 % of control | [15] 101 % of control | [16] 92 % of control

OC(c1ccc(OCc2ccccc2)cc1)c1nccc2ccccc12 (stereo not drawn)
inactive: dose: 100.0 mg/kg/injection, schedule: Q01DX001 (ip), vehicle: acetone 88 % of control

CC(=O)Nc1cc(C)c(C=O)cc1C
inactive: [19] 88 % of control | [20] 108 % of control | [21] 92 % of control

CN(C)c1ccc(/C=N/NC=O)c(Cl)c1
inactive: dose: 10.0 mg/kg/injection, schedule: Q01DX001 (ip), vehicle: acetone 103 % of control | dose: 20.0 mg/kg/injection, schedule: Q01DX001 (ip), vehicle: acetone 110 % of control | dose: 40.0 mg/kg/injection, schedule: Q01DX001 (ip), vehicle: acetone 95 % of control

NC(=O)C1=CN(Cc2ccc(F)cc2)c2ccccc2C1
inactive: dose: 100.0 mg/kg/injection, schedule: Q04DX003 (ip), vehicle: other 107 % of control | dose: 200.0 mg/kg/injection, schedule: Q04DX003 (ip), vehicle: other 94 % of control | dose: 400.0 mg/kg/injection, schedule: Q04DX003 (ip), vehicle: other 102 % of control

CCCCCCCCCCCCCCCCCC[N+](CCCC)(CCCC)CCCCCCCCCCCCCCCCCC (tested in a mixture with another compound)
inactive: [6] 93 % of control | [7] 90 % of control

CC(=O)[C@H]1CC[C@H]2[C@@H]3CCC4=CC(=O)CC[C@]4(C)[C@H]3CC[C@]12C
inactive: dose: 125.0 mg/kg/injection, schedule: Q01DX Z (sc), vehicle: steriod suspending solution 97 % of control | dose: 250.0 mg/kg/injection, schedule: Q01DX Z (sc), vehicle: steriod suspending solution 91 % of control | dose: 500.0 mg/kg/injection, schedule: Q01DX Z (sc), vehicle: steriod suspending solution 96 % of control | dose: 1000.0 mg/kg/injection, schedule: Q01DX Z (sc), vehicle: steriod suspending solution 92 % of control

COC(=O)C1=C(C(=O)OC)C2(C)C=CC1O2 (stereo not drawn)
inactive: dose: 3.12 mg/kg/injection, schedule: Q01DX009 (ip), vehicle: saline with Tween-80 98 % of control | dose: 6.25 mg/kg/injection, schedule: Q01DX009 (ip), vehicle: saline with Tween-80 93 % of control | [17] 98 % of control and 105 % of control | [18] 106 % of control

Nc1nc(N)nc(-c2ccccc2N=NN2CCOCC2)n1
inactive: [3] 103 % of control | [4] 101 % of control | [5] 101 % of control

NCC(=O)NC(CCC(=O)O)C(=O)O (stereo not drawn) (H-Gly-[ξE]-OH)
inactive: dose: 50.0 mg/kg/injection, schedule: Q04DX002 (ip), vehicle: saline 89 % of control | [1] 104 % of control | [2] 93 % of control

Cn1ncc2c(N(N)CCO)nc(-c3ccc([N+](=O)[O-])o3)nc21
inactive: dose: 50.0 mg/kg/injection, schedule: Q01DX001 (ip), vehicle: saline 108 % of control | [14] 108 % of control | [15] 104 % of control | [16] 117 % of control

CCCCCOC(=O)C1OC1(C)c1ccccc1 (stereo not drawn)
inactive: [12] 98 % of control | [13] 91 % of control | dose: 400.0 mg/kg/injection, schedule: Q01DX009 (ip), vehicle: saline with Tween-80 88 % of control
